Data taken from ChEMBL document CHEMBL4613209, “Quinolone hybrids and their anti-cancer activities: An overview” (Eur J Med Chem, 2019).

Columns and labels:
Format in all cases: functional, cell-based
L1210 [1] = experiment: Cytotoxicity against mouse L1210 cells assessed as reduction in cell viability
HL-60 [2] = experiment: Cytotoxicity against human HL60 cells assessed as reduction in cell viability
SMMC-7721 [3] = experiment: Cytotoxicity against human SMMC7721 cells assessed as reduction in cell viability
CAPAN-1 [4] = experiment: Cytotoxicity against human Capan1 cells assessed as reduction in cell viability
Hep 3B2 [5] = experiment: Cytotoxicity against human Hep3B cells assessed as reduction in cell viability
MCF7 = experiment: Cytotoxicity against human MCF7 cells assessed as reduction in cell viability by MTT assay
SMMC-7721 [6] = experiment: Cytotoxicity against human SMMC7721 cells assessed as reduction in cell viability by MTT assay
L1210 [7] = experiment: Cytotoxicity against mouse L1210 cells assessed as reduction in cell viability by MTT assay
HL-60 [8] = experiment: Cytotoxicity against human HL60 cells assessed as reduction in cell viability by MTT assay
Hep 3B2 [9] = experiment: Cytotoxicity against human Hep3B cells assessed as reduction in cell viability by MTT assay
CAPAN-1 [10] = experiment: Cytotoxicity against human Capan1 cells assessed as reduction in cell viability by MTT assay
SK-MEL3 = experiment: Cytotoxicity against human SK-MEL-3 cells assessed as reduction in cell viability by MTT assay
A-431 = experiment: Cytotoxicity against human A431 cells assessed as reduction in cell viability by MTT assay
EJ = experiment: Cytotoxicity against human EJ cells assessed as reduction in cell viability by MTT assay
SW480 = experiment: Cytotoxicity against human SW480 cells assessed as reduction in cell viability by MTT assay
A549 [11] = experiment: Antiproliferative activity against human A549 cells after 72 hrs by MTT assay; details: A549, 72 h
HL-60 [12] = experiment: Antiproliferative activity against human HL60 cells after 72 hrs by MTT assay; details: HL-60, 72 h
CHO = experiment: Cytotoxicity against CHO cells assessed as reduction in cell viability; details: Cricetulus griseus
SMMC-7721 [13] = experiment: Antiproliferative activity against human SMMC7721 cells by MTT assay
L1210 [14] = experiment: Antiproliferative activity against mouse L1210 cells by MTT assay
HL-60 [15] = experiment: Antiproliferative activity against human HL60 cells by MTT assay
A549 [16] = experiment: Antiproliferative activity against human A549 cells by CCK8 assay
HeLa = experiment: Antiproliferative activity against human HeLa cells by CCK8 assay
HCT-116 = experiment: Cytotoxicity against human HCT116 cells assessed as reduction in cell viability by SRB assay
NCI-H460 = experiment: Cytotoxicity against human NCI-H460 cells assessed as reduction in cell viability by SRB assay
U-251 = experiment: Cytotoxicity against human U251 cells assessed as reduction in cell viability by SRB assay

Measured: IC50

CCn1cc(-c2nnc(SC/C(=N/NC(N)=S)c3ccc(OC)cc3)[nH]2)c(=O)c2cc(F)c(N3CCN(C)CC3)cc21
2.7 to 27.6 µM: L1210 [1] | HL-60 [2] | SMMC-7721 [3]

CN1CCN(c2cc3c(cc2F)c(=O)c(-c2nc4s/c(=C\c5cccc(S(N)(=O)=O)c5)c(=O)n4n2)cn3C2CC2)CC1
0.3 to 8.4 µM: HL-60 [2] | CAPAN-1 [4] | Hep 3B2 [5]

CN1CCN(c2cc3c(cc2F)c(=O)c(-c2nc4s/c(=C\c5cccc([N+](=O)[O-])c5)c(=O)n4n2)cn3C2CC2)CC1
0.3 to 8.4 µM: HL-60 [2] | CAPAN-1 [4] | Hep 3B2 [5]

COC(=O)c1ccc(/C=c2\sc3nc(-c4cn(C5CC5)c5cc(N6CCN(C)CC6)c(F)cc5c4=O)nn3c2=O)cc1
0.3 to 8.4 µM: HL-60 [2] | CAPAN-1 [4] | Hep 3B2 [5]

CN1CCN(c2cc3c(cc2F)c(=O)c(-c2nc4s/c(=C\c5ccc(Cl)cc5)c(=O)n4n2)cn3C2CC2)CC1
> 10 µM: HL-60 [2] | CAPAN-1 [4] | Hep 3B2 [5]

O=C(O)c1cn(C2CC2)c2cc(N3CCNCC3)c(F)cc2c1=O [CIPROFLOXACIN]
> 0.302 µM: A549 [11] | HL-60 [12]
≥ 100 µM: SMMC-7721 [13] | L1210 [14] | HL-60 [15]
137 to 238 µM: SMMC-7721 [6] | SK-MEL3 | A-431 | EJ | SW480
> 150 µM: L1210 [1] | HL-60 [2] | CHO
> 100 µM: MCF7 | L1210 [7] | HL-60 [8] | Hep 3B2 [9] | CAPAN-1 [10]

CCn1cc(-c2nnc(SC/C(=N/NC(N)=S)c3ccccc3O)[nH]2)c(=O)c2cc(F)c(N3CCN(C)CC3)cc21
2.7 to 8.6 µM: L1210 [1] | HL-60 [2] | SMMC-7721 [3]

CCn1cc(-c2nnc(SC/C(=N/NC(N)=S)c3ccccc3)[nH]2)c(=O)c2cc(F)c(N3CCN(C)CC3)cc21
2.7 to 27.6 µM: L1210 [1] | HL-60 [2] | SMMC-7721 [3]

O=C(CCCCCCC(=O)Nc1ccccc1)NO [VORINOSTAT]
2.9 to 6.4 µM: A549 [16] | HeLa

CC(=O)n1cc2c(=O)[nH]c3ccccc3c2n1
0.16 to 0.3 µM: HCT-116 | NCI-H460 | U-251

O=C(CCCCCn1cc(C(=O)Nc2nc3ccccc3s2)c(=O)c2cc(F)ccc21)NO
0.6 to 16 µM: HCT-116 | NCI-H460 | U-251

Cc1csc(NC(=O)c2cn(CCCCCC(=O)NO)c3ccccc3c2=O)n1
2.43 to 2.9 µM: HCT-116 | NCI-H460 | U-251

COc1ccc(-c2c3c(=O)[nH]c4ccccc4c3nn2C(C)=O)cc1
0.16 to 0.3 µM: HCT-116 | NCI-H460 | U-251

CCn1cc(-c2nnc(SC/C(=N/NC(N)=S)c3ccccc3OC)[nH]2)c(=O)c2cc(F)c(N3CCN(C)CC3)cc21
2.7 to 27.6 µM: L1210 [1] | HL-60 [2] | SMMC-7721 [3]

COc1ccccc1/C=c1\sc2nc(-c3cn(C4CC4)c4cc(N5CCN(C)CC5)c(F)cc4c3=O)nn2c1=O
> 10 µM: HL-60 [2] | CAPAN-1 [4] | Hep 3B2 [5]

COC(=O)c1cccc(/C=c2\sc3nc(-c4cn(C5CC5)c5cc(N6CCN(C)CC6)c(F)cc5c4=O)nn3c2=O)c1
0.3 to 8.4 µM: HL-60 [2] | CAPAN-1 [4] | Hep 3B2 [5]

CCn1cc(-c2nnc(SC/C(=N/NC(N)=S)c3ccc(O)c(OC)c3)[nH]2)c(=O)c2cc(F)c(N3CCN(C)CC3)cc21
2.7 to 8.6 µM: L1210 [1] | HL-60 [2] | SMMC-7721 [3]

CCn1cc(-c2nnc(SC/C(=N/NC(N)=S)c3ccc(Cl)cc3)[nH]2)c(=O)c2cc(F)c(N3CCN(C)CC3)cc21
2.7 to 27.6 µM: L1210 [1] | HL-60 [2] | SMMC-7721 [3]

CC(=O)n1nc2c(c1-c1cccs1)c(=O)[nH]c1ccccc12
0.16 to 0.3 µM: HCT-116 | NCI-H460 | U-251

CCn1cc(-c2nnc(SC/C(=N/NC(N)=S)c3ccc(OC)c(OC)c3)[nH]2)c(=O)c2cc(F)c(N3CCN(C)CC3)cc21
2.7 to 27.6 µM: L1210 [1] | HL-60 [2] | SMMC-7721 [3]

CN1CCN(c2cc3c(cc2F)c(=O)c(-c2nc4s/c(=C\c5ccc([N+](=O)[O-])cc5)c(=O)n4n2)cn3C2CC2)CC1
0.3 to 8.4 µM: HL-60 [2] | CAPAN-1 [4] | Hep 3B2 [5]

Cc1ccc(/C=c2\sc3nc(-c4cn(C5CC5)c5cc(N6CCN(C)CC6)c(F)cc5c4=O)nn3c2=O)cc1
> 10 µM: HL-60 [2] | CAPAN-1 [4] | Hep 3B2 [5]

O=C(CCCCCn1cc(C(=O)Nc2nc3ccccc3s2)c(=O)c2ccccc21)NO
0.6 to 1 µM: HCT-116 | NCI-H460 | U-251

O=C(O)c1cn(C2CC2)c2c(c1=O)C=C(F)C1=NN=C(c3ccc(Br)cc3)CN12
1 to 48.6 µM: SMMC-7721 [13] | L1210 [14] | HL-60 [15]

CCn1cc(-c2nnc(SC/C(=N/NC(N)=S)c3ccc([N+](=O)[O-])cc3)[nH]2)c(=O)c2cc(F)c(N3CCN(C)CC3)cc21
2.7 to 27.6 µM: L1210 [1] | HL-60 [2] | SMMC-7721 [3]

CCn1cc(-c2nnc(SC/C(=N/NC(N)=S)c3ccc(F)cc3)[nH]2)c(=O)c2cc(F)c(N3CCN(C)CC3)cc21
2.7 to 8.6 µM: L1210 [1] | HL-60 [2] | SMMC-7721 [3]

CCn1cc(-c2nnc(SC/C(=N/NC(N)=S)c3ccc4c(c3)OCO4)[nH]2)c(=O)c2cc(F)c(N3CCN(C)CC3)cc21
2.7 to 27.6 µM: L1210 [1] | HL-60 [2] | SMMC-7721 [3]

Nc1cccc(C2=NN=C3C(F)=Cc4c(n(C5CC5)cc(C(=O)O)c4=O)N3C2)c1
1 to 48.6 µM: SMMC-7721 [13] | L1210 [14] | HL-60 [15]

COc1ccc2c(c1)c(=O)c(C(=O)Nc1nc3ccccc3s1)cn2CCCCCC(=O)NO
0.6 to 16 µM: HCT-116 | NCI-H460 | U-251

Cn1nc(-c2ccccc2)cc1NC(=O)c1cn(CCCCCC(=O)NO)c2ccccc2c1=O
0.6 to 16 µM: HCT-116 | NCI-H460 | U-251

CN1CCN(c2cc3c(cc2F)c(=O)c(-c2nc4s/c(=C\c5cccc(C#N)c5)c(=O)n4n2)cn3C2CC2)CC1
> 10 µM: HL-60 [2] | CAPAN-1 [4] | Hep 3B2 [5]

O=C(O)c1cn(C2CC2)c2c(c1=O)C=C(F)C1=NN=C(c3ccc(Cl)cc3)CN12
1 to 48.6 µM: SMMC-7721 [13] | L1210 [14] | HL-60 [15]

O=C(CCCCCn1cc(C(=O)Nc2nccs2)c(=O)c2ccccc21)NO
5 to 16 µM: HCT-116 | NCI-H460 | U-251

O=c1[nH]c2ccccc2c2n[nH]c(-c3cn(-c4ccccc4)nc3-c3ccccc3)c12
0.16 to 0.3 µM: HCT-116 | NCI-H460 | U-251

CCn1cc(-c2nnc(SC/C(=N/NC(N)=S)c3ccc(O)cc3)[nH]2)c(=O)c2cc(F)c(N3CCN(C)CC3)cc21
2.7 to 8.6 µM: L1210 [1] | HL-60 [2] | SMMC-7721 [3]

CCn1cc(-c2nnc(SC/C(=N/NC(N)=S)c3ccc(C)cc3)[nH]2)c(=O)c2cc(F)c(N3CCN(C)CC3)cc21
2.7 to 27.6 µM: L1210 [1] | HL-60 [2] | SMMC-7721 [3]

O=C(O)c1cn(C2CC2)c2c(c1=O)C=C(F)C1=NN=C(c3ccccc3)CN12
1 to 48.6 µM: SMMC-7721 [13] | L1210 [14] | HL-60 [15]

O=c1[nH]c2ccccc2c2nn(-c3ccccc3)c(-c3cn(-c4ccccc4)nc3-c3ccccc3)c12
0.16 to 0.3 µM: HCT-116 | NCI-H460 | U-251

O=c1[nH]cc(F)c(=O)[nH]1 [FLUOROURACIL]
0.54 µM: HCT-116 | NCI-H460 | U-251

COc1ccc(C2=NN=C3C(F)=Cc4c(n(C5CC5)cc(C(=O)O)c4=O)N3C2)cc1OC
1 to 48.6 µM: SMMC-7721 [13] | L1210 [14] | HL-60 [15]

CN1CCN(c2cc3c(cc2F)c(=O)c(-c2nc4s/c(=C\c5cccc(C(=O)O)c5)c(=O)n4n2)cn3C2CC2)CC1
0.3 to 8.4 µM: HL-60 [2] | CAPAN-1 [4] | Hep 3B2 [5]

CCn1cc(C(=O)O)c(=O)c2cc(F)c(N3CCN(C)CC3)cc21 [PEFLOXACIN]
> 100 µM: L1210 [1] | HL-60 [2] | SMMC-7721 [3]

O=C(O)c1cn(C2CC2)c2c(c1=O)C=C(F)C1=NN=C(c3ccccc3F)CN12
1 to 48.6 µM: SMMC-7721 [13] | L1210 [14] | HL-60 [15]

CN1CCN(c2cc3c(cc2F)c(=O)c(-c2nc4s/c(=C\c5ccc(C#N)cc5)c(=O)n4n2)cn3C2CC2)CC1
> 10 µM: HL-60 [2] | CAPAN-1 [4] | Hep 3B2 [5]

O=c1[nH]c2ccccc2c2n[nH]c(/C=C/c3ccccc3)c12
0.16 to 0.3 µM: HCT-116 | NCI-H460 | U-251

COc1ccc(/C=c2\sc3nc(-c4cn(C5CC5)c5cc(N6CCN(C)CC6)c(F)cc5c4=O)nn3c2=O)cc1
> 10 µM: HL-60 [2] | CAPAN-1 [4] | Hep 3B2 [5]

CN1CCN(c2cc3c(cc2F)c(=O)c(-c2nc4s/c(=C\c5ccc(C(=O)O)cc5)c(=O)n4n2)cn3C2CC2)CC1
0.3 to 8.4 µM: HL-60 [2] | CAPAN-1 [4] | Hep 3B2 [5]

COc1ccc2c(c1)c(=O)c(C(=O)Nc1cc(-c3ccccc3)nn1C)cn2CCCCCC(=O)NO
0.6 to 16 µM: HCT-116 | NCI-H460 | U-251
